Values quoted from earlier work, collected in publication PMC8537988, “Re-Use of Caco-2 Monolayers in Permeability Assays—Validation Regarding Cell Monolayer Integrity” (Pharmaceutics, 2021).

Tested on: Caco-2 monolayers
Set-up: method as in PMID 34247356
Details: day 23 post-seeding, 90 min sampling interval; cited from earlier work

For “Lucifer yellow CH di-potassium salt [LY]”, the “amount of LY that permeates through Caco-2 monolayers” value is listed as 0.27%.
